Laboratory results reported in PubChem BioAssay AID192 (DTP/NCI, 2004).
Inconclusive results and toxic doses are left out.

Test system: BDF1 mice, B16 melanoma ip, median survival T/C
Assay: NCI In Vivo Anticancer Drug Screen. Data for tumor model B16 Melanoma (intraperitoneal) in B6D2F1 (BDF1) mice
Details: endpoint: median survival time, higher = longer survival
Method in brief: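 Survival or tumor size is measured after treatment of tumor-bearing mice and normalised to the vehicle-treated control group.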

[1] = dose: 25.0 mg/kg/injection, schedule: Q01DX009 (ip), vehicle: saline with Tween-80
[2] = dose: 50.0 mg/kg/injection, schedule: Q01DX009 (ip), vehicle: saline with Tween-80
[3] = dose: 100.0 mg/kg/injection, schedule: Q01DX009 (ip), vehicle: saline with Tween-80
[4] = dose: 1.56 mg/kg/injection, schedule: Q01DX009 (ip), vehicle: saline
[5] = dose: 3.12 mg/kg/injection, schedule: Q01DX009 (ip), vehicle: saline
[6] = dose: 100.0 mg/kg/injection, schedule: Q01DX009 (ip), vehicle: Klucel (hydroxypropylcellulose) (HPC)
[7] = dose: 200.0 mg/kg/injection, schedule: Q01DX009 (ip), vehicle: Klucel (hydroxypropylcellulose) (HPC)
[8] = dose: 50.0 mg/kg/injection, schedule: Q01DX009 (ip), vehicle: Klucel (hydroxypropylcellulose) (HPC)
[9] = dose: 25.0 mg/kg/injection, schedule: Q01DX009 (ip), vehicle: saline

Q: How did the T/C (dose: 100.0 mg/kg/injection, schedule: Q04DX003 (ip), vehicle: saline with Tween-80) turn out when `CNc1ccc(C(=O)O)cc1OC` was run?
A: 95 % of control

Q: What about the T/C (dose: 200.0 mg/kg/injection, schedule: Q04DX003 (ip), vehicle: saline with Tween-80) of the same compound?
A: 91 % of control

Q: What about the T/C (dose: 400.0 mg/kg/injection, schedule: Q04DX003 (ip), vehicle: saline with Tween-80) of the same compound?
A: 90 % of control

Q: How did the T/C [1] turn out when `Cc1ccc2no[n+]([O-])c2c1[N+](=O)[O-]` was run?
A: 93 % of control

Q: And the T/C [2]?
A: 97 % of control

Q: And the T/C [3]?
A: 98 % of control

Q: How did the T/C (dose: 0.78 mg/kg/injection, schedule: Q01DX009 (ip), vehicle: saline) turn out when `CC(=O)c1ccc2c(c1)N(CCCN1CCN(CCO)CC1)c1ccccc1S2` was run?
A: 98 % of control

Q: And the T/C [4]?
A: 103 % of control

Q: What about the T/C [5] of the same compound?
A: 97 % of control

Q: Which T/C (dose: 100.0 mg/kg/injection, schedule: Q04DX003 (ip), vehicle: Klucel (hydroxypropylcellulose) (HPC)) does the source give for `Cc1ccc(S(=O)(=O)N(CCCCN(S(=O)(=O)c2ccc(C)cc2)S(=O)(=O)c2ccc(C)cc2)S(=O)(=O)c2ccc(C)cc2)cc1` here?
A: 95 % of control

Q: What about the T/C (dose: 400.0 mg/kg/injection, schedule: Q04DX003 (ip), vehicle: Klucel (hydroxypropylcellulose) (HPC)) of the same compound?
A: 112 % of control

Q: Which T/C (dose: 12.5 mg/kg/injection, schedule: Q01DX009 (ip), vehicle: saline with Tween-80) does the source give for `C=C1C(=O)OC2C1CC1OC2C(C)CCC/C(C)=C\CCC1(C)O` (stereo not drawn) here?
A: 97 % of control

Q: What about the T/C [1] of the same compound?
A: 101 % of control

Q: What about the T/C [2] of the same compound?
A: 100 % of control

Q: And the T/C [3]?
A: 104 % of control

Q: For `CCc1nc(N)nc(N)c1-c1ccc(Cl)cc1`, which T/C (dose: 4.0 mg/kg/injection, schedule: Q01DX009 (ip), vehicle: Klucel (hydroxypropylcellulose) (HPC)) is on record?
A: 93 % of control

Q: And the T/C (dose: 4.0 mg/kg/injection, schedule: Q01DX009 (oral), vehicle: Klucel (hydroxypropylcellulose) (HPC))?
A: 102 % of control

Q: And the T/C (dose: 4.0 mg/kg/injection, schedule: Q01DX009 (sc), vehicle: Klucel (hydroxypropylcellulose) (HPC))?
A: 90 % of control

Q: And the T/C (dose: 4.0 mg/kg/injection, schedule: Q06HX004 (ip), vehicle: Klucel (hydroxypropylcellulose) (HPC))?
A: 107 % of control

Q: And the T/C (dose: 4.0 mg/kg/injection, schedule: Q06HX008 (ip), vehicle: Klucel (hydroxypropylcellulose) (HPC))?
A: 91 % of control

Q: What about the T/C (dose: 8.0 mg/kg/injection, schedule: Q01DX009 (ip), vehicle: Klucel (hydroxypropylcellulose) (HPC)) of the same compound?
A: 95 % of control

Q: And the T/C (dose: 8.0 mg/kg/injection, schedule: Q01DX009 (oral), vehicle: Klucel (hydroxypropylcellulose) (HPC))?
A: 100 % of control

Q: What about the T/C (dose: 8.0 mg/kg/injection, schedule: Q01DX009 (sc), vehicle: Klucel (hydroxypropylcellulose) (HPC)) of the same compound?
A: 92 % of control

Q: What about the T/C (dose: 8.0 mg/kg/injection, schedule: Q06HX004 (ip), vehicle: Klucel (hydroxypropylcellulose) (HPC)) of the same compound?
A: 90 % of control

Q: What about the T/C (dose: 8.0 mg/kg/injection, schedule: Q06HX008 (ip), vehicle: Klucel (hydroxypropylcellulose) (HPC)) of the same compound?
A: 104 % of control

Q: What about the T/C (dose: 8.0 mg/kg/injection, schedule: Q06HX012 (ip), vehicle: Klucel (hydroxypropylcellulose) (HPC)) of the same compound?
A: 100 % of control

Q: And the T/C (dose: 16.0 mg/kg/injection, schedule: Q01DX001 (ip), vehicle: Klucel (hydroxypropylcellulose) (HPC))?
A: 96 % of control

Q: What about the T/C (dose: 16.0 mg/kg/injection, schedule: Q01DX001 (oral), vehicle: Klucel (hydroxypropylcellulose) (HPC)) of the same compound?
A: 106 % of control

Q: What about the T/C (dose: 16.0 mg/kg/injection, schedule: Q01DX001 (sc), vehicle: Klucel (hydroxypropylcellulose) (HPC)) of the same compound?
A: 113 % of control

Q: And the T/C (dose: 16.0 mg/kg/injection, schedule: Q01DX009 (ip), vehicle: Klucel (hydroxypropylcellulose) (HPC))?
A: 113 % of control

Q: What about the T/C (dose: 16.0 mg/kg/injection, schedule: Q01DX009 (oral), vehicle: Klucel (hydroxypropylcellulose) (HPC)) of the same compound?
A: 113 % of control

Q: And the T/C (dose: 16.0 mg/kg/injection, schedule: Q01DX009 (sc), vehicle: Klucel (hydroxypropylcellulose) (HPC))?
A: 98 % of control

Q: And the T/C (dose: 16.0 mg/kg/injection, schedule: Q04DX003 (ip), vehicle: Klucel (hydroxypropylcellulose) (HPC))?
A: 86 % of control

Q: What about the T/C (dose: 16.0 mg/kg/injection, schedule: Q06HX004 (ip), vehicle: Klucel (hydroxypropylcellulose) (HPC)) of the same compound?
A: 98 % of control

Q: And the T/C (dose: 16.0 mg/kg/injection, schedule: Q06HX008 (ip), vehicle: Klucel (hydroxypropylcellulose) (HPC))?
A: 108 % of control

Q: And the T/C (dose: 16.0 mg/kg/injection, schedule: Q06HX012 (ip), vehicle: Klucel (hydroxypropylcellulose) (HPC))?
A: 87 % of control

Q: What about the T/C (dose: 16.0 mg/kg/injection, schedule: Q08DX002 (ip), vehicle: Klucel (hydroxypropylcellulose) (HPC)) of the same compound?
A: 87 % of control

Q: What about the T/C (dose: 32.0 mg/kg/injection, schedule: Q01DX001 (ip), vehicle: Klucel (hydroxypropylcellulose) (HPC)) of the same compound?
A: 96 % of control

Q: And the T/C (dose: 32.0 mg/kg/injection, schedule: Q01DX001 (oral), vehicle: Klucel (hydroxypropylcellulose) (HPC))?
A: 104 % of control

Q: What about the T/C (dose: 32.0 mg/kg/injection, schedule: Q01DX001 (sc), vehicle: Klucel (hydroxypropylcellulose) (HPC)) of the same compound?
A: 117 % of control

Q: What about the T/C (dose: 32.0 mg/kg/injection, schedule: Q01DX009 (ip), vehicle: Klucel (hydroxypropylcellulose) (HPC)) of the same compound?
A: 102 % of control

Q: And the T/C (dose: 32.0 mg/kg/injection, schedule: Q01DX009 (oral), vehicle: Klucel (hydroxypropylcellulose) (HPC))?
A: 120 % of control

Q: What about the T/C (dose: 32.0 mg/kg/injection, schedule: Q01DX009 (sc), vehicle: Klucel (hydroxypropylcellulose) (HPC)) of the same compound?
A: 103 % of control

Q: What about the T/C (dose: 32.0 mg/kg/injection, schedule: Q04DX003 (ip), vehicle: Klucel (hydroxypropylcellulose) (HPC)) of the same compound?
A: 100 % of control

Q: And the T/C (dose: 32.0 mg/kg/injection, schedule: Q06HX008 (ip), vehicle: Klucel (hydroxypropylcellulose) (HPC))?
A: 100 % of control

Q: What about the T/C (dose: 32.0 mg/kg/injection, schedule: Q08DX002 (ip), vehicle: Klucel (hydroxypropylcellulose) (HPC)) of the same compound?
A: 102 % of control

Q: And the T/C (dose: 64.0 mg/kg/injection, schedule: Q01DX001 (sc), vehicle: Klucel (hydroxypropylcellulose) (HPC))?
A: 117 % of control

Q: What about the T/C (dose: 64.0 mg/kg/injection, schedule: Q01DX009 (sc), vehicle: Klucel (hydroxypropylcellulose) (HPC)) of the same compound?
A: 101 % of control

Q: And the T/C (dose: 64.0 mg/kg/injection, schedule: Q04DX003 (ip), vehicle: Klucel (hydroxypropylcellulose) (HPC))?
A: 100 % of control

Q: And the T/C (dose: 64.0 mg/kg/injection, schedule: Q08DX002 (ip), vehicle: Klucel (hydroxypropylcellulose) (HPC))?
A: 100 % of control

Q: What about the T/C (dose: 128.0 mg/kg/injection, schedule: Q01DX001 (sc), vehicle: Klucel (hydroxypropylcellulose) (HPC)) of the same compound?
A: 106 % of control

Q: `NC(=S)SCCC(=O)O` was tested. Which T/C [6] did it give?
A: 96 % of control

Q: And the T/C [7]?
A: 86 % of control

Q: `C#CC(C)(O)c1ccccc1` (stereo not drawn) was tested. Which T/C [8] did it give?
A: 100 % of control

Q: And the T/C [6]?
A: 100 % of control

Q: And the T/C [7]?
A: 103 % of control

Q: `CCOC(=O)C1(C)OCCO1` was tested. Which T/C (dose: 100.0 mg/kg/injection, schedule: Q04DX003 (ip), vehicle: saline) did it give?
A: 95 % of control

Q: What about the T/C (dose: 200.0 mg/kg/injection, schedule: Q04DX003 (ip), vehicle: saline) of the same compound?
A: 104 % of control

Q: And the T/C (dose: 400.0 mg/kg/injection, schedule: Q04DX003 (ip), vehicle: saline)?
A: 104 % of control

Q: Which T/C [1] does the source give for `O=C(O)C1C(C(=O)O)C2(Cl)C(Cl)=C(Cl)C1(Cl)C2(Cl)Cl.[Fe]` (stereo not drawn) here?
A: 93 % of control

Q: What about the T/C [2] of the same compound?
A: 95 % of control

Q: What about the T/C [3] of the same compound?
A: 93 % of control

Q: How did the T/C (dose: 18.7 mg/kg/injection, schedule: Q01DX009 (ip), vehicle: Klucel (hydroxypropylcellulose) (HPC)) turn out when `Cc1ncc([N+](=O)[O-])n1CCO` was run?
A: 104 % of control

Q: And the T/C (dose: 37.5 mg/kg/injection, schedule: Q01DX009 (ip), vehicle: Klucel (hydroxypropylcellulose) (HPC))?
A: 118 % of control

Q: And the T/C (dose: 75.0 mg/kg/injection, schedule: Q01DX009 (ip), vehicle: Klucel (hydroxypropylcellulose) (HPC))?
A: 115 % of control

Q: And the T/C (dose: 150.0 mg/kg/injection, schedule: Q01DX009 (ip), vehicle: Klucel (hydroxypropylcellulose) (HPC))?
A: 102 % of control

Q: What about the T/C (dose: 300.0 mg/kg/injection, schedule: Q01DX009 (ip), vehicle: Klucel (hydroxypropylcellulose) (HPC)) of the same compound?
A: 113 % of control

Q: What about the T/C (dose: 600.0 mg/kg/injection, schedule: Q01DX009 (ip), vehicle: Klucel (hydroxypropylcellulose) (HPC)) of the same compound?
A: 106 % of control

Q: How did the T/C (dose: 25.0 mg/kg/injection, schedule: Q01DX009 (ip), vehicle: Klucel (hydroxypropylcellulose) (HPC)) turn out when `Cc1cc(C)cc(OCC2CNC(=O)O2)c1` (stereo not drawn) was run?
A: 94 % of control

Q: And the T/C [8]?
A: 108 % of control

Q: And the T/C [6]?
A: 91 % of control

Q: What about the T/C [7] of the same compound?
A: 94 % of control

Q: And the T/C (dose: 400.0 mg/kg/injection, schedule: Q01DX009 (ip), vehicle: Klucel (hydroxypropylcellulose) (HPC))?
A: 100 % of control

Q: Which T/C [9] does the source give for `CCC1C(=O)NC(=O)C1(C)c1ccccc1` (stereo not drawn) here?
A: 105 % of control

Q: What about the T/C (dose: 50.0 mg/kg/injection, schedule: Q01DX009 (ip), vehicle: saline) of the same compound?
A: 108 % of control

Q: And the T/C (dose: 100.0 mg/kg/injection, schedule: Q01DX009 (ip), vehicle: saline)?
A: 100 % of control

Q: And the T/C (dose: 200.0 mg/kg/injection, schedule: Q01DX009 (ip), vehicle: saline)?
A: 100 % of control

Q: For `ClCCN(CC#CCCCC#CCN(CCCl)CCCl)CCCl`, which T/C [4] is on record?
A: 111 % of control

Q: What about the T/C [5] of the same compound?
A: 123 % of control

Q: And the T/C (dose: 12.5 mg/kg/injection, schedule: Q01DX009 (ip), vehicle: saline)?
A: 173 % of control

Q: And the T/C [9]?
A: 156 % of control

Q: Which results are given for `CCN(CC)Cc1ncccc1O`?
A: T/C [8]: 107 % of control; T/C [6]: 103 % of control
